Source: patent publication US11324750B2, “Compositions and methods for the treatment of severe acute respiratory syndrome coronavirus 2 (SARS-CoV-2) infection” (Children's Hospital Medical Center, priority 2020, dated 2022)

Test system: severe COVID-19 patients
Assay: Randomized controlled trial, clinical outcomes (seven-category ordinal scale, chest CT, mortality, lymphocyte recovery, supportive treatments)
Type: in vivo, human
Conditions: for CT scan follow-up within 14 days: Improvement, %: P 0.07 vs control
Source text: As of the effective date of this application, no therapeutics have yet been proven effective for the treatment of severe COVID-19 with cytokine storm. Ruxolitinib, a potent and selective oral inhibitor of Janus kinase (JAK) 1 and JAK2, was proposed by Applicant to be beneficial in the treatment of cytokine storm. Applicant conducted a prospective, multicenter, single-blind, randomized controlled trial involving participants diagnosed as severe COVID-19 patients. The enrolled patients were randomly separated into two groups with a 1:1 allocation by an independent statistician in blocks of 4 for all 3 sites. Study number and treatment allocation codes were provided in sequentially numbered opaque envelops. Intervention group is treated with ongoing oral intake 5 mg of ruxolitinib (Jakafi®, Novartis Pharma Stein AG, Switzerland) twice a day based on the standard-of-care (SoC); the control group is treated with placebo plus SoC. The primary endpoint was the incidence of serious adverse events occurring up to 28 days and the time to clinical improvement. The secondary endpoint is the overall mortality at D28. This trial is registered at www.chictr.org.cn as ChiCTR-OPN-2000029580.
A prospective, single-blind, randomized controlled trial was designed. Participants diagnosed as positive for COVID-19 were enrolled for screening in three hospitals including Tongji hospital and No. 1 hospital in Wuhan and the Third Xiangya hospital in Changsha, China. The original protocol included secondary randomization in a treatment group for infusion of mesenchymal stem cells if the patient's clinical response had deteriorated within seven days after first randomization. Because no deterioration had occurred in patients of the treatment group within seven days after first randomization and secondary randomization was unnecessary, the protocol was updated correspondingly. This study was approved by the Medical ethics committee of Tongji Hospital, Tongji Medical College, Huazhong University of Science and Technology, Wuhan, China, registered at www.chictr.org.cn as ChiCTR-OPN-2000029580.
Participants. All participants were required to meet the following inclusion criteria: (1) enrolled patients met the diagnostic criterial for COVID-19. The diagnosis and the illness severity of COVID-19 were defined according to the Chinese management guideline for COVID-19 (version 5.0)^28; (2) patients were eligible if they were 18 years or older and younger than 75 years. (3) only severe cases were enrolled. Exclusion criterial included: (1) patients with other malignant tumors in the course of treatment; (2) patients with severe cardiovascular and metabolic disease in unstable status, even if treated with drugs; (3) patients with mental or severe psychiatric disorder who are unable to understand or abide the study protocols; (4) patients needing orotracheal intubation or invasive ventilation; (5) patients who cannot guarantee to complete the scheduled treatment plan and follow-up; (6) women of child-bearing age having positive pregnancy test or still lactating; (7) patients having other active infections; (8) patients having any conditions deemed to potentially affect the safety of the study protocols. Written informed consent was obtained from all patients or the patients' legal representative if the patient was too unwell to provide the consent.
Randomization and masking. The enrolled patients were then randomly allocated into two groups with a 1:1 allocation ratio by an independent statistician using permuted blocks of 4 for all 3 sites. Patient unique identification number and treatment allocation codes were provided in sequentially numbered opaque envelops. Treating physicians were aware of group allocations while the enrolled participants, staff at trial sites, CT radiologists and laboratory personnel were masked to the trial group assignment.
Procedures. The first day of randomization was designated as D0. […]

For N#CC[C@H](C1CCCC1)n1cc(-c2ncnc3[nH]ccc23)cn1 [Ruxolitinib, (3R)-3-cyclopentyl-3-[4-(7H-pyrrolo[2,3-d]pyrimidin-4-yl)pyrazol-1-yl]propanenitrile], the “CT scan follow-up within 14 days: Progression, %” value (chest CT, N = 20) was “(5.0%)”, the “CT scan follow-up within 14 days: Stable, %” value (chest CT, N = 20) was “(5.0%)” and the “CT scan follow-up within 14 days: Improvement, %” value (chest CT, N = 20) was “(90.0%)”. For the same compound, the “CT scan follow-up within 14 days: Improvement, %” value (chest CT, N = 20, listed as ruxolitinib) was 90%, the “Time from randomization to death” value (median (IQR)) was 0 days and the “Time from randomization to discharge” value (median (IQR), P 0.94 vs control) was 17 days. For the same compound, the “Time to lymphocyte recovery” value (median (IQR), patients with lymphopenia, log-rank P 0.03 vs control) was 5 days, the “Time to clinical improvement” value (median (IQR), primary efficacy endpoint, log-rank P 0.15 vs control) was 12 days and the “Clinical improvement Day 28, %” value (seven-category ordinal scale, N = 20, P 0.23 vs control) was “(100.0%)”. For the same compound, the “Clinical improvement Day 14, %” value (seven-category ordinal scale, N = 20, P 0.35 vs control) was “(60.0%)”, the “Clinical improvement Day 7, %” value (seven-category ordinal scale, N = 20, P 0.41 vs control) was “(20.0%)” and the “Clinical improvement Day 21, %” value (seven-category ordinal scale, N = 20, P 1.00 vs control) was “(90.0%)”.
